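The compound was tested at five concentrations on cells cultured in 96-well plates, with a 48-hour exposure period. GI50: concentration for 50% inhibition of growth.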 The source made the active and inactive calls. Cut-off read from the data, not from the text of the source: active = GI50 up to about 1.1 µM and inactive = higher.
Experiments:
Experiment in all cases: NCI tumour cell line growth inhibition, 48 h
HOP-92 = system: HOP-92
SK-MEL-2 = system: SK-MEL-2
SNB-19 = system: SNB-19
SK-OV-3 = system: SK-OV-3
CCRF-CEM = system: CCRF-CEM
A498 = system: A498
M14 = system: M14
HL-60 = system: HL-60
SF-539 = system: SF-539
PC-3 = system: PC-3
OVCAR-5 = system: OVCAR-5
SF-268 = system: SF-268
UACC-257 = system: UACC-257
HT-29 = system: HT-29
NCI-H226 = system: NCI-H226
EKVX = system: EKVX
IGROV-1 = system: IGROV-1
SF-295 = system: SF-295
SNB-75 = system: SNB-75

| SMILES | GI50 (HOP-92) | GI50 (SK-MEL-2) | GI50 (SNB-19) | GI50 (SK-OV-3) | GI50 (CCRF-CEM) | GI50 (A498) | GI50 (M14) | GI50 (HL-60) | GI50 (SF-539) | GI50 (PC-3) | GI50 (OVCAR-5) | GI50 (SF-268) | GI50 (UACC-257) | GI50 (HT-29) | GI50 (NCI-H226) | GI50 (EKVX) | GI50 (IGROV-1) | GI50 (SF-295) | GI50 (SNB-75) |
| --- | --- | --- | --- | --- | --- | --- | --- | --- | --- | --- | --- | --- | --- | --- | --- | --- | --- | --- | --- |
| O=C1c2cc(Br)ccc2-c2ccc3c4ccc5c6c(ccc(c7ccc1c2c73)c64)C(=O)c1cc(Br)ccc1-5 | > 100 µM (inactive) | > 100 µM (inactive) | > 100 µM (inactive) | > 100 µM (inactive) | 0.787 µM (active) | > 100 µM (inactive) | > 100 µM (inactive) | 25.8 µM (inactive) | > 100 µM (inactive) | > 100 µM (inactive) | > 100 µM (inactive) | > 100 µM (inactive) | > 100 µM (inactive) | > 100 µM (inactive) | > 100 µM (inactive) | > 100 µM (inactive) | > 100 µM (inactive) |  |  |
| CC(C)(C)N(Cc1ccc2c(c1)OCO2)C(=O)/C=C\Sc1ccccc1 | 14.2 µM (inactive) | 25.2 µM (inactive) | > 100 µM (inactive) | > 100 µM (inactive) | 43.5 µM (inactive) | 71 µM (inactive) | 77.1 µM (inactive) | 37.1 µM (inactive) | > 100 µM (inactive) | 38.1 µM (inactive) | > 100 µM (inactive) |  | 71.1 µM (inactive) | 28.8 µM (inactive) | 68.2 µM (inactive) | 60.8 µM (inactive) | 83.2 µM (inactive) | > 100 µM (inactive) |  |
| Cn1c(=O)c2c(nc3sc4ncccc4c(=O)n32)n(C)c1=O | > 100 µM (inactive) | > 100 µM (inactive) | > 100 µM (inactive) | > 100 µM (inactive) | > 100 µM (inactive) | > 100 µM (inactive) | > 100 µM (inactive) | > 100 µM (inactive) | > 100 µM (inactive) | > 100 µM (inactive) | > 100 µM (inactive) | > 100 µM (inactive) | > 100 µM (inactive) | > 100 µM (inactive) | > 100 µM (inactive) | > 100 µM (inactive) | > 100 µM (inactive) | > 100 µM (inactive) | > 100 µM (inactive) |
| COc1cc(C2SCC(=O)N2c2ccc(Cl)cc2)cc(OC)c1OC (configuration not stated) | > 49.1 µM (inactive) | 8.51 µM (inactive) | > 100 µM (inactive) | > 94.6 µM (inactive) | 1.99 µM (inactive) | > 100 µM (inactive) | 0.266 µM (active) | 2.46 µM (inactive) | > 100 µM (inactive) | 46.2 µM (inactive) | 0.252 µM (active) | 97.5 µM (inactive) | 22.6 µM (inactive) |  | > 49.1 µM (inactive) | 3.15 µM (inactive) | 20.7 µM (inactive) | 4.95 µM (inactive) | > 100 µM (inactive) |
| CC1(C)[C@H]2Cc3cc(-c4cc5c(cn4)[C@@H]4C[C@H]([C@@H]5[C@@H]5c6cc(-c7cc8c(cn7)[C@@H]7C[C@H](C8)C7(C)C)ncc6[C@@H]6C[C@H]5C6(C)C)C4(C)C)ncc3[C@@H]1C2 | > 100 µM (inactive) | > 100 µM (inactive) | > 100 µM (inactive) | > 100 µM (inactive) | > 100 µM (inactive) | > 100 µM (inactive) | > 100 µM (inactive) | > 100 µM (inactive) |  | > 100 µM (inactive) | > 100 µM (inactive) | > 100 µM (inactive) | > 100 µM (inactive) | > 100 µM (inactive) | > 100 µM (inactive) | > 100 µM (inactive) | > 100 µM (inactive) | > 100 µM (inactive) | > 100 µM (inactive) |
| n1onc2c1NC1Nc3nonc3NC1N2 (configuration not stated) | > 100 µM (inactive) |  | 27.7 µM (inactive) | > 100 µM (inactive) | > 100 µM (inactive) | > 100 µM (inactive) | > 100 µM (inactive) | > 100 µM (inactive) | > 100 µM (inactive) | > 100 µM (inactive) | > 100 µM (inactive) | > 100 µM (inactive) |  | > 100 µM (inactive) | > 100 µM (inactive) | > 100 µM (inactive) | > 100 µM (inactive) | > 100 µM (inactive) | > 100 µM (inactive) |
| CC(=O)O/C=C1/C[C@H]2[C@@H]3CCC4CC(C(C)=O)CC[C@]4(C)[C@H]3CC[C@]2(C)C1=O (some centres not stated) | 41 µM (inactive) | > 100 µM (inactive) | 53.2 µM (inactive) | > 100 µM (inactive) | 29.1 µM (inactive) | > 100 µM (inactive) |  | 11.9 µM (inactive) |  | > 100 µM (inactive) | > 100 µM (inactive) | > 100 µM (inactive) | > 100 µM (inactive) | 51.4 µM (inactive) | > 100 µM (inactive) | > 100 µM (inactive) | 88.9 µM (inactive) | 49.1 µM (inactive) |  |
| COc1ccc2c(O)c(Oc3ccc(Cl)cc3)c(=O)oc2c1 | 34.5 µM (inactive) |  | 31.4 µM (inactive) |  | > 100 µM (inactive) | 38.5 µM (inactive) | 88.9 µM (inactive) | > 100 µM (inactive) | > 100 µM (inactive) | > 100 µM (inactive) | > 100 µM (inactive) | > 100 µM (inactive) | > 100 µM (inactive) | > 100 µM (inactive) | > 100 µM (inactive) | > 100 µM (inactive) | 60 µM (inactive) | > 100 µM (inactive) | 99.5 µM (inactive) |
| C(=C\N1CCCCC1)/c1nnnn1-c1ccccc1 | 66.1 µM (inactive) |  | 32.6 µM (inactive) | 25.6 µM (inactive) | 19.6 µM (inactive) | 54.1 µM (inactive) | 14.1 µM (inactive) | 15.8 µM (inactive) | 25.3 µM (inactive) | 27.7 µM (inactive) | 42.1 µM (inactive) | 27 µM (inactive) | 56.2 µM (inactive) | 84.5 µM (inactive) | 37.2 µM (inactive) | 23.5 µM (inactive) | 27.7 µM (inactive) | 21.9 µM (inactive) | 19.6 µM (inactive) |
| CS(=O)(=O)Nc1ccc2c(c1)oc(=O)c1ccccc12 | > 100 µM (inactive) | > 100 µM (inactive) | > 100 µM (inactive) |  | > 100 µM (inactive) | > 100 µM (inactive) | > 100 µM (inactive) | > 100 µM (inactive) | > 100 µM (inactive) | > 100 µM (inactive) | > 100 µM (inactive) | 13.3 µM (inactive) | > 100 µM (inactive) | > 100 µM (inactive) | > 100 µM (inactive) | 45.4 µM (inactive) | > 100 µM (inactive) | > 100 µM (inactive) | > 100 µM (inactive) |
| O=c1[nH]nc(Cc2ccccc2)n1/N=C/c1ccncc1 | > 100 µM (inactive) |  | > 100 µM (inactive) |  | > 100 µM (inactive) | 39 µM (inactive) | > 100 µM (inactive) | > 100 µM (inactive) | > 100 µM (inactive) | > 100 µM (inactive) | > 100 µM (inactive) | > 100 µM (inactive) | > 100 µM (inactive) | > 100 µM (inactive) | > 100 µM (inactive) | > 100 µM (inactive) | > 100 µM (inactive) | > 100 µM (inactive) | > 100 µM (inactive) |
| C=C1CCCCCCCCCCC12SCCC2CCCCSC (configuration not stated) | 28.1 µM (inactive) | 17.5 µM (inactive) | 21.8 µM (inactive) | 47.3 µM (inactive) |  | 20.8 µM (inactive) | 19.9 µM (inactive) | 26.5 µM (inactive) | 20.6 µM (inactive) | 22.6 µM (inactive) | 20 µM (inactive) | 28.7 µM (inactive) | 26.1 µM (inactive) | 22.3 µM (inactive) | 20.4 µM (inactive) | 34.6 µM (inactive) | 22.5 µM (inactive) | 19.9 µM (inactive) |  |
| CN(C)CCCn1c(Cc2ccc(Cl)cc2)nc2cc(C(F)(F)F)ccc21 | 9.98 µM (inactive) | 16.9 µM (inactive) | 16.5 µM (inactive) | 14.4 µM (inactive) | 13 µM (inactive) | 12.7 µM (inactive) | 12.7 µM (inactive) | 29.6 µM (inactive) | 16.3 µM (inactive) | 15.4 µM (inactive) | 17.7 µM (inactive) | 14.1 µM (inactive) | 15.6 µM (inactive) | 14.6 µM (inactive) | 18.7 µM (inactive) | 17.4 µM (inactive) | 13.1 µM (inactive) | 17.5 µM (inactive) |  |
| O=C1N[C@@H]2O[C@H](CNC(=O)c3cc(Br)c[nH]3)C[C@]2(O)N1.O=C1N[C@H]2O[C@H](CNC(=O)c3cc(Br)c[nH]3)C[C@@]2(O)N1 | > 100 µM (inactive) | > 100 µM (inactive) | > 100 µM (inactive) | > 100 µM (inactive) |  | > 100 µM (inactive) | > 100 µM (inactive) | > 100 µM (inactive) | > 100 µM (inactive) | > 100 µM (inactive) | > 100 µM (inactive) | > 100 µM (inactive) | > 100 µM (inactive) | > 100 µM (inactive) | > 100 µM (inactive) | > 100 µM (inactive) | > 100 µM (inactive) | > 100 µM (inactive) | > 100 µM (inactive) |
| O=C(/C=C/C=C/c1ccccc1)c1ccc2c(c1)CCCC2 | 30 µM (inactive) | 83.2 µM (inactive) | 97.7 µM (inactive) | 72.9 µM (inactive) | 27.8 µM (inactive) | 38 µM (inactive) | 94.2 µM (inactive) |  | 54.5 µM (inactive) | 36.5 µM (inactive) | > 100 µM (inactive) | 16.2 µM (inactive) | 31.1 µM (inactive) | 28.4 µM (inactive) | 41.1 µM (inactive) | 36.5 µM (inactive) | 42.8 µM (inactive) | 58.3 µM (inactive) |  |

Reference: ChEMBL document CHEMBL1201862, “PubChem BioAssay data set” (2004)
